pEC50: −log10 of the molar value.
Assays:
Assay in all cases: microbe, parasite or virus in culture
Assay type in all cases: cell-based
A/Perth/265/09 (H1N1) = conditions: Influenza A virus, H1N1, MDCK, 168 h
A/TX/36/91 (H1N1) = conditions: Influenza A virus, H1N1, MDCK, 168 h
A/HK/1/68 (H3N2) = conditions: Influenza A virus, H3N2, MDCK, 168 h

**Q.** How did the pEC50 (A/Perth/265/09 (H1N1)) turn out when `CC(=O)N[C@H]1[C@H]([C@H](O)[C@H](O)CO)OC(C(=O)O)=C[C@@H]1N=C(N)N` [Zanamivir] was run?
**A.** 5.82

**Q.** What about the pEC50 (A/TX/36/91 (H1N1)) of the same compound?
**A.** 6.14

**Q.** What about the pEC50 (A/HK/1/68 (H3N2)) of the same compound?
**A.** 4.56
